Experimental data taken from PubChem BioAssay AID1963853 (Molecular Pharmacology Branch, DTP, NCI, 2024).
“And” between values parts separate entries of the source, which are not always exact repeats. Identical values can stand only once.

Test system: 266295-075-R-J1-PDC spheroid viability
Experiment: Anticancer human tumor 266295-075-R-J1-PDC patient-derived head and neck squamous carcinoma cell line growth inhibition [POLQ]
Conditions: spheroids with HUVEC and MSC; for viability, T/C: stronger effect = lower value; active means viability on the fitted dose curve at most 10% of control; inactive means the rest
Protocol: Multicellular complex tumor spheroid response to Polymerase (POL) inhibitors (novobiocin, ART-558, RP6685) in combination with a variety of drugs and investigational agents in selected tumor cell lines
The POL inhibitors (novobiocin, ART-558, and RP6685) were evaluated both individually and in combination with standard of care and investigational anticancer small molecules within a complex spheroid model of solid tumors. . Complex spheroids include a stromal component modeled by human endothelial cells (HUVEC) and fibroblasts modeled by human mesenchymal stem cells (MSCs). The concentration ranges selected for each drug and investigational agent were based upon clinically achievable concentrations if the clinical Cmax of the agent was known.
Compounds. The drugs and investigational agents: novobiocin (NSC847541), ART-558 (NSC835418), RP-6685 (NSC848927), peposertib (NSC802822), ceralasertib (NSC780249), elimusertib (NSC800525), camonsertib (NSC841442), AZD-1390 (NSC803789), olaparib (NSC753686), talazoparib (NSC767125), rucaparib (NSC756644), sotorasib (NSC818433), MRTX-1133 (NSC836407), SN-38 (NSC673596), topotecan (NSC609699), epotoside (NSC141540), doxorubicin (NSC123127), gemcitabine (NSC613327), 5-fluorouracil (NSC19893), paclitaxel (NSC125973), vemurafenib (NSC761431), MSA-2 (NSC828583), SN-011 (NSC837082), adavosertib (NSC754352), prexasertib (NSC758257), carboplatin (NSC241240) and oxaliplatin (NSC266046), were obtained from the National Cancer Institute (NCI) Developmental Therapeutics Program Chemical Repository (21). The FDA-approved anticancer drug set is available from the Developmental Therapeutics Program at https://dtp.cancer.gov/organization/dscb/obtaining/. […] The stock solutions were prepared in dimethyl sulfoxide (DMSO, Sigma-Aldrich, St. Louis, MO, cat. D2650), except for the platinum compounds which were prepared in saline (Quality Biological, Gaithersburg, MD, cat. 114-055-101), at 800-fold the tested concentration and stored at -70 degrees C prior to their use. All drugs and investigational agents were tested over a range starting from a high concentration at or near the clinical Cmax and decreasing in half-log increments. If the clinical Cmax for an agent had not been determined, the highest concentration tested was 10 microM, except for SN-38, which was tested at a high concentration of 1 microM.
Cell Culture. All cells were maintained in an incubator at 37 degrees C and 5% CO2 with 95% humidity. The PDC lines were cultured according to standard operating procedures established by the NCI PDMR (https://pdmr.cancer.gov). Table 3 of the manuscript, lists the cell lines along with the number of the three cell types plated to form the mct-spheroids and media for tumor cell growth. After thawing, all PDC lines, except 997537-175-T-J1-PDC and 415267-285-R-J2-PDC, were cultured in Matrigel-coated flasks prepared with a working solution of 1X Ham's F-12 nutrient mix, without supplementation (Thermo Fisher Scientific, cat. 11765054), 100 U/mL penicillin-streptomycin (Thermo Fisher Scientific, cat. 15140122), and 2.5% Matrigel (Corning Inc., Corning, NY, cat. 354248) for the first three passages. The two PDC lines 997537-175-T-J1-PDC and 415267-285-R-J2-PDC were cultured on uncoated flasks. The 857933-349-R-J2-PDC line was cultured in 6C/Colon 1B media containing advanced DMEM/F-12 (Thermo Fisher Scientific, cat. 12634028), 10 mM HEPES (Thermo Fisher Scientific, cat. 15630080), 1X GlutaMAX supplement (Thermo Fisher Scientific, cat. 35050061), 0.1 mg/mL primocin (InvivoGen, San Diego, CA, cat. ant-pm-2), 10% defined fetal bovine serum, heat inactivated (HyClone Laboratories Inc., Logan, UT, cat. SH30070.03HI), 50% L-WRN conditioned media (ATCC, cat. CRL-3276), 1.25 mM N-Acetyl-L-cysteine (Sigma-Aldrich, cat. A9165), 10 mM nicotinamide (Sigma-Aldrich, cat. N0636), 1X B-27 supplement (Thermo Fisher Scientific, cat. 17504044), 1X N-2 supplement (Thermo Fisher Scientific, cat. […]
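Further: spheroids exposed to compounds for seven days before readout.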

COc1cccc2c1C(=O)c1c(O)c3c(c(O)c1C2=O)CC(O)(C(=O)CO)CC3OC1CC(N)C(O)C(C)O1 (configuration not stated)
2000 nM and 4150 nM and 3850 nM: IC50 (curve of compound)
active: viability, T/C (compound 10 µM) 1.55% and 2.37% and 2.7%
inactive: viability, T/C (compound 0.0316 µM) 75.4% and 85.8% and 98.2% | viability, T/C (compound 0.1 µM) 77% and 122% and 101% | viability, T/C (compound 0.316 µM) 67.3% and 74% and 72.5% | viability, T/C (compound 1 µM) 55.9% and 77.4% and 82.8% | viability, T/C (compound 3.16 µM) 47.4% and 71.8% and 63.5%

Nc1ccc(C#CCN(C(=O)Cc2ncc(C(F)(F)F)cc2C(F)(F)F)c2ccc(F)cc2)nn1
inactive: viability, T/C (compound 0.316 µM) 102% [middle of 13 runs] | viability, T/C (compound 3.16 µM) 95.5% [middle of 13 runs] | viability, T/C (compound 10 µM) 96.3% [middle of 13 runs]
> 10000 nM: IC50 (compound alone, run of 11/06/2023)

C=CCn1c(=O)c2cnc(Nc3ccc(N4CCN(C)CC4)cc3)nc2n1-c1cccc(C(C)(C)O)n1
inactive: viability, T/C (compound 0.00316 µM) 98.5% and 82.4% and 90.4% | viability, T/C (compound 0.01 µM) 86.6% and 97.5% and 99.7% | viability, T/C (compound 0.0316 µM) 102% and 93.3% and 99.6% | viability, T/C (compound 0.1 µM) 127% and 114% and 84.3% | viability, T/C (compound 0.316 µM) 83% and 93.8% and 89.9% | viability, T/C (compound 1 µM) 70% and 70.6% and 63.8%
> 1000 nM: IC50 (curve of compound)

CCc1cc2c(N3CCc4c(cc(Cn5ccnc5)cc4-c4cn(C)nc4C(F)(F)F)C3=O)cc(C)nc2c(OC)n1
inactive: viability, T/C (compound 0.0316 µM) 98.5% and 103% and 90.3% | viability, T/C (compound 0.1 µM) 95.8% and 103% and 98.5% | viability, T/C (compound 0.316 µM) 91.9% and 89.5% and 109% | viability, T/C (compound 1 µM) 120% and 97% and 110% | viability, T/C (compound 3.16 µM) 123% and 113% and 127% | viability, T/C (compound 10 µM) 128% (2×) and 130%
> 10000 nM: IC50 (curve of compound)

CC[C@@]1(O)C(=O)OCc2c1cc1n(c2=O)Cc2cc3c(CN(C)C)c(O)ccc3nc2-1 + COC1C(OC(N)=O)C(O)C(Oc2ccc3c(O)c(NC(=O)c4ccc(O)c(CC=C(C)C)c4)c(=O)oc3c2C)OC1(C)C
> 100 nM: IC50 (curve of first compound, second compound 0.0316 µM) | IC50 (curve of first compound, second compound 0.1 µM) | IC50 (curve of first compound, second compound 0.316 µM) | IC50 (curve of first compound, second compound 1 µM) | IC50 (curve of first compound, second compound 3.16 µM) | IC50 (curve of first compound, second compound 10 µM)
inactive: viability, T/C (second compound 0.0316 µM, first compound 0.000316 µM) 84.1% | viability, T/C (second compound 0.0316 µM, first compound 0.001 µM) 99.8% | viability, T/C (second compound 0.0316 µM, first compound 0.00316 µM) 84.9% | viability, T/C (second compound 0.0316 µM, first compound 0.01 µM) 96.9% | viability, T/C (second compound 0.0316 µM, first compound 0.0316 µM) 89.4% | viability, T/C (second compound 0.0316 µM, first compound 0.1 µM) 104% | viability, T/C (second compound 0.1 µM, first compound 0.000316 µM) 87.2% | viability, T/C (second compound 0.1 µM, first compound 0.001 µM) 87.7% | viability, T/C (second compound 0.1 µM, first compound 0.00316 µM) 90.5% | viability, T/C (second compound 0.1 µM, first compound 0.01 µM) 100% | viability, T/C (second compound 0.1 µM, first compound 0.0316 µM) 103% | viability, T/C (second compound 0.1 µM, first compound 0.1 µM) 88% | viability, T/C (second compound 0.316 µM, first compound 0.000316 µM) 102% | viability, T/C (second compound 0.316 µM, first compound 0.001 µM) 85.4% | viability, T/C (second compound 0.316 µM, first compound 0.00316 µM) 75.8% | viability, T/C (second compound 0.316 µM, first compound 0.01 µM) 98.2% | viability, T/C (second compound 0.316 µM, first compound 0.0316 µM) 89.4% | viability, T/C (second compound 0.316 µM, first compound 0.1 µM) 89.1% | viability, T/C (second compound 1 µM, first compound 0.000316 µM) 99% | viability, T/C (second compound 1 µM, first compound 0.001 µM) 90.8% | viability, T/C (second compound 1 µM, first compound 0.00316 µM) 109% | viability, T/C (second compound 1 µM, first compound 0.01 µM) 89.2% | viability, T/C (second compound 1 µM, first compound 0.0316 µM) 114% | viability, T/C (second compound 1 µM, first compound 0.1 µM) 100% | viability, T/C (second compound 3.16 µM, first compound 0.000316 µM) 114% | viability, T/C (second compound 3.16 µM, first compound 0.001 µM) 97% | viability, T/C (second compound 3.16 µM, first compound 0.00316 µM) 85.3% | viability, T/C (second compound 3.16 µM, first compound 0.01 µM) 91.2% | viability, T/C (second compound 3.16 µM, first compound 0.0316 µM) 88.3% | viability, T/C (second compound 3.16 µM, first compound 0.1 µM) 96.9% | viability, T/C (second compound 10 µM, first compound 0.000316 µM) 95.8% | viability, T/C (second compound 10 µM, first compound 0.001 µM) 98.5% | viability, T/C (second compound 10 µM, first compound 0.00316 µM) 97.8% | viability, T/C (second compound 10 µM, first compound 0.01 µM) 107% | viability, T/C (second compound 10 µM, first compound 0.0316 µM) 95.4% | viability, T/C (second compound 10 µM, first compound 0.1 µM) 94.5%
